In patent US8138357B2, “Compounds and their salts specific to the PPAR receptors and the EGF receptors and their use in the medical field” (Giuliani International Limited, priority 2005, dated 2012):
“Also recorded” adds a separate entry of the source. Residues, ends and D or L forms follow the SMILES beside them. *: point of attachment. Cbz = O=C(OCc1ccccc1)*; CH2F = FC*

Key:
DLD-1 cells [1] = experiment: Cell death by Annexin V / propidium iodide FACS analysis; assay type: cell-based, human; conditions: 48 hours
Method: The effect of the compound 14 on colon epithelial cell death was also assessed. To this end, cells were cultured as indicated above for 2 days and then the fraction of Annexin V (AV) and/or propidium iodide (PI)-positive cells was evaluated using a commercially available kit (Beckmann Coulter™, Milan, Italy). To evaluate whether the effect of the compound 14 on colon epithelial cell death was dependent on caspase activity, cells were pre-incubated with z-VAD-fmk (40 μM), a pan-caspase inhibitor, for 1 hour prior to adding the compound 14 (1.5 mM). The fraction of AV and PI-positive cells was determined after 48 hours culture as indicated above.

DLD-1 cells [2] = experiment: Cell growth by colorimetric BrdU incorporation assay, DLD-1; assay type: cell-based; conditions: Homo sapiens, 48 hours; for inhibition at 500 µM: 0.5 mM; for inhibition at 1000 µM: 1 mM; for inhibition at 2500 µM: 2.5 mM; for inhibition at 5000 µM: 5 mM; for inhibition at 10000 µM: 10 mM
Method: (§1) HT-29 and DLD-1 cells were cultured in McCoy and RPMI1640 media respectively, supplemented with 10% fetal bovine serum (FBS), 1% penicillin/streptomycin (P/S) and 50 μg/ml gentamycin. HT-115 were cultured in DMEM medium supplemented with 15% FBS and 1% P/S. Cells were maintained in a humidified incubator at 37° C., in the presence of 5% CO2.
(§2) For cell growth assays, single-cell suspensions were plated at 2×10^3 cells/well (4×10^3 cells/well for HT115) in 96-well culture dishes in medium containing 0.5% FBS and allowed to adhere. The non-adherent cells were then removed, and fresh medium containing 0.5% FBS was added into each well. Cells were cultured in the presence or absence of the specified substances. Each substance was dissolved as a 25 mM stock solution in culture medium containing 0.5% FBS, and the pH of each stock solution was adjusted to 7.4, if necessary, with NaOH. Substances were used at a final concentration ranging from 0.5 to 10 mM. Cell proliferation was determined by measuring the incorporation of 5-bromo-2′-deoxyuridine (BrdU) into DNA using a commercially available cell proliferation kit (Roche Diagnostics™, Monza, Italy). BrdU was added to the cell cultures during the last 6 hours of incubation, and the level of BrdU-positive cells was assessed after 48 h culture by enzyme-linked immunosorbent assay (ELISA).
(§3) Optical density (OD) was determined at 450 nm using an ELISA reader. Experiments were performed in triplicate and the results are reported as the mean±standard deviation (SD).

HT-29, HT-115 and DLD-1 = experiment: Colon cancer cell growth by BrdU assay, three human colon carcinoma cell lines; assay type: cell-based; conditions: for anti-proliferative effect on colon cancer cell growth (in words): 0.5-10 mM; for anti-proliferative effect on colon cancer cell growth (in words) / inhibition at 10000 µM: 48 h; for inhibition at 10000 µM: Homo sapiens, Colon carcinoma cell, final concentration 10 mM
Method: For this purpose, three human colon carcinoma cell lines (i.e. HT-29, HT-115 and DLD-1) were used. These cell types were selected on the basis of the cyclooxigenase-2 (COX-2) expression. Indeed, HT-115 cells express a biologically active COX-2, HT-29 cells express a non-functional COX-2 isoform, and DLD-1 are COX-2-deficient cells.
as §1, §2, §3

HT-29 STD cells = experiment: Cytotoxic effect on epithelial cells seen in the HT-29 experiments; assay type: cell-based, human; conditions: 30 mM, HT-29 cells
Method: HT-29 STD cells were transiently transfected using the Effectene™ transfection reagent (Qiagen™) according to instructions from the manufacturer. To test PPARγ activation, we performed transfection with 500 ng of a minimal promoter construct containing two copies of PPRE obtained from the cytochrome p450 4A (2XCYP) (1). The renilla luciferase plasmid ([…]) was also transfected as an internal control for monitoring transfection efficiency and for normalizing the firefly luciferase activity. Transfected cells were left for 48 hours incubation at 37° C. […] The pH of the drug solutions was adjusted to 7.4 with NaOH. Total cell extracts were prepared using the Passive Lysis Buffer (Promega™, Madison, Wis.). Luciferase activity was assayed in 20 μl of the extract using the Promega™ Dual Luciferase assay system according to the manufacturer's protocol. Transfections were assayed in triplicate in at least three separate experiments. The luciferase activity was expressed as fold of the activity obtained in cells treated with the different molecules divided by luciferase activity from non-stimulated cells.
After 24 h of culture, HT-29 STD cells were treated during 24 h with the new molecules 13, 14, 17, 26 and 31, at 30 mM. […] The pH of the drug solutions was adjusted to 7.4 with NaOH. Cells were fixed in PFA 4%, permeabilized in PBS containing 0.1% Triton X-100™ at 4° C. and then incubated with goat normal serum and blocking buffer (1% BSA in PBS) to minimize non-specific adsorption of the antibody.
After 24 h of culture, HT-29 STD cells were treated during 24 h with the new molecules 13, 14, 17, 26 and 31, at a concentration of 30 mM. […] The pH of the drug solutions was adjusted to 7.4 with NaOH. Cells undergoing apoptosis were identified by enzymatic labelling of DNA strands using a terminal transferase dUTP nick end labelling assay (TUNEL assay, Roche Diagnostics™, Meylan, France). Counts of at least 500 cells/sample were systematically performed blindly in one experiment. The results were expressed as the mean±SEM of the number of stained cells.

[3] = Solubility in drug solutions / culture medium; assay type: physicochemical; conditions: colon cancer cell cultures, Example 10
DLD-1 cells [4] = experiment: CFSE flow cytometry of cell proliferation; assay type: cell-based, human; conditions: 48 hour treatment, untreated 90±4%
Method: To assess further the effect of the compound 14 on colon epithelial cell growth, serum-starved DLD-1 cells were incubated in 0.2 μM carboxyfluorescein diacetate succinimidyl ester (CFSE) (Invitrogen™, Milan Italy) at 37° C. for 30 minutes, then extensively washed and cultured with or without the addition of the compound. After 2 days culture, CFSE fluorescence was evaluated and the proportion of cells undergoing divisions was determined, thus allowing calculation of both precursor frequency and proliferative index.

Row | SMILES | percentage of AV/PI-positive cells in cells treated with compound 14 (DLD-1 cells [1]; preincubation z-VAD-fmk 40 μM 1 hour, then compound 14 1.5 mM) | inhibition at 500 µM (DLD-1 cells [2]) | inhibition at 1000 µM (DLD-1 cells [2]) | inhibition at 2500 µM (DLD-1 cells [2]) | inhibition at 5000 µM (DLD-1 cells [2]) | inhibition at 10000 µM (DLD-1 cells [2]) | anti-proliferative effect on colon cancer cell growth (in words) (HT-29, HT-115 and DLD-1) | inhibition at 10000 µM (HT-29, HT-115 and DLD-1) | cell death following precipitates in cell cultures (HT-29, HT-115 and DLD-1; colon cancer cell cultures, Example 10) | cytotoxic effect on epithelial cells (HT-29 STD cells) | precipitates in cell cultures [3] | fraction of proliferating cells (DLD-1 cells [4]; 0.5 mM) | fraction of proliferating cells (DLD-1 cells [4]; 1 mM) | fraction of proliferating cells (DLD-1 cells [4]; 2.5 mM) | cell death (AV and/or PI-positive cells) (DLD-1 cells [1]; 1.5 mM, p<0.01) | cell death (AV and/or PI-positive cells) (DLD-1 cells [1]; 3 mM, p<0.001)
1 | COC(=O)C[C@H](NC(=O)[C@H](C)NC(=O)[C@@H](NC(=O)OCc1ccccc1)C(C)C)C(=O)CF [Z-VAD, z-VAD-fmk, reference compound] (Cbz-Val-Ala-Asp(OMe)-CH2F) | largely reduced | – | – | – | – | – | – | – | – | – | – | – | – | – | – | –
2 | COc1cc(N)ccc1C(=O)NO [compound 13, 4-amino-N-hydroxy-2-methoxybenzamide] | – | 21.1% | 73% | 92.7% | 96.3% | 96.4% | marked anti-proliferative effect; also recorded: most powerful suppressors of colon cancer cell growth | > 90% | massive cell death | rapid cytotoxic effects | precipitates developed | – | – | – | – | –
3 | COc1ccc(N)cc1C(=O)NO [compound 14, 5-amino-N-hydroxy-2-methoxybenzamide] | – | 22.8% | 36% | 76.5% | 90.5% | 94.1% | marked anti-proliferative effect; also recorded: most powerful suppressors of colon cancer cell growth | > 90% | – | rapid cytotoxic effects | – | 48±7% | 21±11% | 11±6% | significantly enhances DLD1 cell death | significantly enhances DLD1 cell death
